Measurements from patent US10973857B2, “Mesenchymal stem cell and use thereof for treatment of muscle injury and muscle-associated diseases” (EXOSTEM BIOTEC LTD., priority 2016, dated 2021).

Legend:
[1] = system: MSCs; experiment: Priming of MSCs to a stem cell phenotype (Protocols D and E); format: cell-based; details: for priming of MSCs: incubation for 1-6 days (Protocol E)
Protocol: These incubations were also performed after first transfecting the MSCs with the modified Nanog mRNA.

[2] = system: MSCs; experiment: Protocol 3 differentiation of MSCs to hybrid cells with growth factors; format: cell-based; details: individually and in combination, as replacements or in combination with HGF and PDGF
Protocol: A shortened third protocol (Protocol 3) was examined and was also found to produce MSC-muscle cell hybrid cells. The MSCs were cultured in normal MSC culturing conditions followed by supplementation of the media for 24 hours with 5-AZA. The cells were than grown in media supplemented with 2% horse serum and HGF and PDGF for 2 weeks. […] The following growth factors were tested both individually and in combination as replacements or in combination with HGF and PDGF: EGF, IGF1, PDGFAA, PDGFBB, and VEGF. […] Additionally, the protocol could be halted by moving the treated MSCs to non-supplemented MSC media. Hybrid cells that were produced could thus be halted from further differentiation.
All three protocols were also performed with MSCs that had first undergone myogenic priming as described above.

[3] = system: MyoD; experiment: Myogenic priming of MSCs, MyoD-GFP reporter; format: cell-based, human; details: Nanog mRNA transfection prior to co-culture (Protocol B); one day incubation with 5-AZA (Protocol C)
From the text: In light of the ability of MSCs to induce muscle regeneration, reduce muscle fibrosis and increase engraftment via paracrine effects, a method of supplementing the therapeutic effect of MSCs was developed. This method, called “myogenic priming”, increased the cell's paracrine effects on muscle cells on the one hand and promoted the MSC's own differentiation to muscle cells on the other. This priming increased the ability of MSCs to differentiate into satellite cells that undergo asymmetric division and to myoblasts that fuse with existing muscle fibers and deliver dystrophin to the cells. It was hypothesized that inducing MyoD expression in the cells would be one method of priming. This was tested by culturing CH- and UC-MSCs containing a MyoD-GFP reporter, in trans-well plates with human muscle cells (Protocol A). In this way, the extracellular vesicles and secreted factors from the muscle cells were able to contact the MSCs. A 3-day incubation resulting in a greater than 2-fold increase in MyoD expression as compared to control cells that had not be exposed to muscle cells (FIG. 3).
In addition to co-cultures with muscle cells, various methods were employed that would induced transient stem cell characteristics in MSCs to increase their muscle differentiation abilities in response to subsequent factors. […]

Compound	priming of MSCs [1]	other results
NC(=O)c1ccc(-c2nc(-c3ccc4c(c3)OCO4)c(-c3ccccn3)[nH]2)cc1 [SB431542]	primed the MSCs to a degree	
IGF1: growth factor		production of hybrid cells from MSCs [2]: found to produce hybrid cells
O=c1c(O)c(-c2ccc(O)c(O)c2)oc2cc(O)ccc12 [fistein]	primed the MSCs to a degree	
CCCC(CCC)C(=O)O [valporic acid]	primed the MSCs to a degree	
[Cl-].[Li+] [LiCl]	primed the MSCs to a degree	
N[C@@H]1C[C@H]1c1ccccc1 (racemic) [tranylcypromine]	primed the MSCs to a degree	
Nc1ncn([C@@H]2O[C@H](CO)[C@@H](O)[C@H]2O)c(=O)n1 [5-azacytidine]		myoD expression [3]: increased
Oc1ccc(C=Cc2cc(O)cc(O)c2)cc1 [resveratrol]	primed the MSCs to a degree	
O=C(NCc1ccccc1)c1csc(Nc2ccncn2)n1 [Thiazovivin]	primed the MSCs to a degree	
PDGFAA: growth factor		production of hybrid cells from MSCs [2]: found to produce hybrid cells
C[C@@H](N)[C@H]1CC[C@H](C(=O)Nc2ccncc2)CC1 [Y-27632]		primed stem cell phenotype in MSCs ([1]; 24 hours, followed by media with a pH of about 6 for 1 hour or hypoxia for 24 hours (Protocol D)): induced a primed stem cell phenotype
CC(C)n1nc(-c2cc3cc(O)ccc3[nH]2)c2c(N)ncnc21 [PP242]	primed the MSCs to a degree	
Nc1nccc2c1ncn2[C@@H]1C=C(CO)[C@@H](O)[C@H]1O [3-deazaneplanocin A]	primed the MSCs to a degree	
Cc1cccc(-c2nn(C(=S)Nc3ccccc3)cc2-c2ccnc3ccccc23)n1 [A83-01]	primed the MSCs to a degree	
Cc1cccc(-c2[nH]ncc2-c2ccc3ncccc3n2)n1 [RepSox]	primed the MSCs to a degree	
CN(C)C(=N)N=C(N)N [metformin]	primed the MSCs to a degree	
VEGF		production of hybrid cells from MSCs [2]: found to produce hybrid cells
Cc1c[nH]c(-c2cnc(NCCNc3ccc(C#N)cn3)nc2-c2ccc(Cl)cc2Cl)n1 [CHIR99021]	primed the MSCs to a degree	
